Experimental data from paper PMC4383706 (Cancer prevention research (Philadelphia, Pa.), 2015).
“Also recorded” adds a separate entry of the source. Where two headings read alike, the source gives them in different places.

Legend:
[1] = system: OH-BBN-induced urinary bladder cancers; conditions: prior studies; at their HEDs (aspirin at doses in substantial excess of its HED), even when initiated after pre-invasive microscopic cancers; cited from earlier work
[2] = system: OH-BBN-induced urinary bladder cancers; assay: OH-BBN-induced urinary bladder cancer model; type: in vivo, Female Fischer-344 rats; conditions: for number of rats with large urinary bladder cancers (>200 mg) at end of study: vehicle 24/25; for final weights of urinary bladder plus cancers vs vehicle control: end of study, Supplementary Fig. 1A/1B
[3] = NPX 40 mg/Kg BW gavage; for CI: serum
[4] = system: OH-BBN-induced urinary bladder cancers; conditions: NPX limited treatment vs vehicle; Supplementary Fig. 3
[5] = humans; cited from earlier work
urinary bladder cancer = conditions: dogs; cited from earlier work
colon adenomas = conditions: cited from earlier work
[6] = system: colon, bladder, skin tumors; conditions: doses which correspond to human doses of 100 or 325 mg; cited from earlier work
[7] = multiple clinical studies; cited from earlier work
[8] = rats, omeprazole levels at the human equivalent dose; cited from earlier work
[9] = low to moderate doses of aspirin

COc1ccc2cc([C@H](C)C(=O)OCCCCO[N+](=O)[O-])ccc2c1 [NO-NPX]
blocking the development of large palpable cancers [1]: effective

COc1ccc2cc([C@H](C)C(=O)O)ccc2c1 [NPX, naproxen]
number of rats with large urinary bladder cancers (>200 mg) at end of study ([2]; 1 week daily NPX (40 mg/kg BW/day)/1week vehicle (Group B)): 6/29 | number of rats with large urinary bladder cancers (>200 mg) at end of study ([2]; 3 week daily NPX (40 mg/kg BW/day)/3 week vehicle (Group C)): 5/28 | rats with palpable cancers, protocol C ([2]; 3 weeks daily NPX/3 week vehicle, vehicle 96%, P<0.01): 19% | inhibition of urinary bladder cancer formation ([2]; NPX by gavage daily, 1 week on/1 week off, or 3 weeks on/3 weeks off, P<.005): 73–82% | rats with palpable cancers, protocol A ([2]; NPX daily, beginning 2 weeks after last OH-BBN, vehicle 96%, P<0.01): 27% | reduction of urinary bladder cancer incidence ([2]; NPX daily, P<0.01): approximately 75% | final weights of urinary bladder plus cancers vs vehicle control [2]: final weights were higher in vehicle controls than in any of the three NPX treatment groups; also recorded: significantly different from control | time for which serum levels greater than 100 uM were achieved following gavage [3]: less than 6 hours | CI ([3]; 14 Day (14 consecutive days)): 0.817 mL/min/kg | CI ([3]; 24 hour (1 day) time point): 0.967 mL/min/kg | levels of phosphorylated AKT (S473) [4]: slightly, but significantly, decrease | phosphorylation of PI3K [4]: slightly, but significantly, decrease | blocking the development of large palpable cancers [1]: effective | accumulation in urine [5]: preferentially accumulates in urine

CN1C(C(=O)Nc2ccccn2)=C(O)c2ccccc2S1(=O)=O [Piroxicam]
therapeutic efficacy in urinary bladder cancer (urinary bladder cancer): has shown therapeutic efficacy

CC(=O)Oc1ccccc1C(=O)O [aspirin]
blocking the development of large palpable cancers [1]: effective | decrease in advanced adenomas (colon adenomas; [9]): 35–40% | decrease in total adenomas (colon adenomas; [9]): 20–25% | preventive efficacy in animal models [6]: routinely ineffective

Cc1ccc(-c2cc(C(F)(F)F)nn2-c2ccc(S(N)(=O)=O)cc2)cc1 [celecoxib]
blocking the development of large palpable cancers [1]: effective | decrease in advanced adenomas (colon adenomas; clinical trial): 55–65% | decrease in total colon adenomas (colon adenomas; clinical trial): ~45%

COc1ccc2[nH]c([S+]([O-])Cc3ncc(C)c(OC)c3C)nc2c1 (stereo not shown) [omeprazole]
final weights of urinary bladder plus cancers vs vehicle control [2]: larger in size than tumors in rats given the vehicle alone | decrease of GI bleeding [7]: 50–75% | acidity of the stomach [8]: decreased the acidity of the stomach

CN(CCOc1ccc(CC2SC(=O)NC2=O)cc1)c1ccccn1 (stereo not shown) [rosiglitazone]
tumor latency ([2]; rosiglitazone 10 mg/kg BW/day by gavage, 10 rats): greatly decreased tumor latency

CC1=C(CC(=O)O)c2cc(F)ccc2/C1=C\c1ccc([S+](C)[O-])cc1 (stereo not shown) [sulindac]
blocking the development of large palpable cancers [1]: effective
